In patent US20230080241A1 (priority 2020, published 2023):
Where two headings read alike, the source gives them in different places.

How the values were obtained:
[1] = test system: Plasmodium falciparum; assay: in vitro asexual blood stage growth of Plasmodium falciparum; assay type: cell-based; settings: for IC50: Plasmodium falciparum, P. falciparum in vitro
Method: Presented herein is experiment data representing tranexamic acid as an antimalarial druggable scaffold. The results shown below show the efficacy of tranexamic acid against both Plasmodium falciparum and P. berghei across the parasite lifecycle. The data herein illustrates the ability of tranexamic acid to act as an antimicrobial agent, and more particularly, in some embodiments, as an antimalarial drug. Experiments were conducted to test, in vitro, the ability of tranexamic acid to impair the asexual intraerythrocytic development of P. falciparum. All of the symptoms associated with malaria infection are caused by the asexual blood stages, which makes them a logical therapeutic target.
Up to six different concentrations of tranexamic acid plus a negative control (carrier with no drug) were tested in a highly synchronous culture. A two-fold serial dilution starting at 200 mM was prepared, replenishing the drug daily for four consecutive days (i.e. two complete intraerythrocytic cycles).
FIG. 1 illustrates in vitro asexual blood stage growth at day 1 after 1 dose of tranexamic acid (TXA). Values are the mean of three technical replicates, and error bars represent the standard deviation. FIG. 2 illustrates in vitro asexual blood stage growth at day 3 after 3 doses of tranexamic acid (TXA). Values are the mean of three technical replicates, and error bars represent the standard deviation. FIG. 3 illustrates in vitro IC50 of tranexamic acid after three daily doses. Values are the mean of three technical replicates, relative to the minimal effect (i. e. the parasitemia from the samples with no drug). Error bars represent the standard deviation. Morphological defective parasites could be observed at day 4 in the two lowest tested concentrations (i.e. 12.5 and 6.25 mM). Healthy segmented schizonts were selected from the sample mock-treated in the absence of tranexamic acid (0 mM).

[2] = test system: Plasmodium berghei ANKA mCherry; assay type: in vivo, mice (outbred CD1); settings: mice
Method: In addition to in vitro experiments to test the ability of tranexamic acid to impair the asexual intraerythrocytic development of P. falciparum, experiments were conducted to test, in vivo, the ability of tranexamic acid to cure asynchronized blood stage infections of Plasmodium berghei ANKA mCherry in mice. P. berghei is a species in the genus Plasmodium subgenus Vinckeia and is a protozoan parasite that causes malaria in rodents. Due to its ability to infect rodents and relative ease of genetic engineering, P. berghei is a popular model organism for the study of human malaria, and was thus used in the present disclosure.
Recipient mice (n=5/group; 3 groups) received blood from a donor mouse containing asynchronous asexual blood stages of P. berguei. Parasitemia was monitored and when it reached at least 5% mice were treated intravenously (i.v.) with 20, 10, or 0 mg of tranexamic acid in a phosphate-buffered saline (PBS) carrier. Blood smears from tail snips were prepared every 24 hours, or until the humane endpoint criteria was reached, to monitor parasitemia.
FIG. 4 illustrates in vivo asexual blood stage growth of P. berghei after the injection of the PBS carrier. […]

Q: With `NC[C@H]1CC[C@H](C(=O)O)CC1` [tranexamic acid] as the compound, how does the clearance of infection ([1]; 100 mM, after 48 hours, two doses) read?
A: cleared the infection

Q: And the clearance of infection ([1]; 200 mM, after 24 hours, single dose, FIG. 1)?
A: completely cleared the infection

Q: What about the parasite morphology ([1]; 12.5 and 6.25 mM, day 4, some parasites arrested at schizont-like morphology) of the same compound?
A: morphological defects could be observed

Q: What about the IC50 ([1]; 72 h, after 3 daily doses, FIG. 3, read-out: IC50 at day 3) of the same compound?
A: 11.4 mM

Q: What about the IC50 ([1]; drug replenished on a daily basis, read-out: in vitro IC50) of the same compound?
A: 11.4 mM

Q: What about the growth delay ([1]; some of the tested concentrations, rings and early trophozoites on day 3 (72 hours after first dose), FIG. 2) of the same compound?
A: a growth delay was observed

Q: And the “equivalent in vitro concentration based on estimated volemia” value ([2]; 10 mg injection i.v.)?
A: approximately 37 mM

Q: What about the “equivalent in vitro concentration based on estimated volemia” value ([2]; 20 mg injection i.v.) of the same compound?
A: ~75 mM
